Series [1] deals with L2 (Normal cell). Kind of series: Growth inhibition of L2 normal cells. In kind it is cell-based. Here is the method:
(§1) Tumor cells (1000 cells per well) which were first treated with the corresponding compound for 3 days, and then EZMTT detection reagents were added measure the cell growth.

The subject of series [2] is PC12 cells. Kind of series: Protection of PC12 nerve cells under OGD (hypoxia-ischemia). In kind it is cell-based. The conditions noted are these: for Protection of PC12 cells under OGD: OGD hypoxia-ischemia condition. An excerpt: Then observed the growth of cellular neurite growth or neural synapse.
Series [3] concerns T24 (Bladder cancer). Kind of series: Inhibition of growth of tumor cells, T24 bladder cancer. Type of series: cell-based. Here is the method: as §1
For series [4], the system named is Caki. Put plainly: Inhibition of growth of tumor cells, Caki. In kind it is cell-based. The following applies: 72 h, read-out: IC50, Caki. Here is the method:
as §1

Series [5] has as its system normal cells. Put plainly: Toxicity to normal cells.
The subject of series [6] is PC12. Put plainly: Inhibition of growth of tumor cells, PC12. In kind it is cell-based. The conditions noted are these: Rattus norvegicus, PC-12, 72 h, read-out: IC50, PC12. Here is the method:
as §1

The test system of series [7] is A549. Put plainly: Inhibition of growth of tumor cells, A549. Type of series: cell-based. The following applies: Homo sapiens, read-out: IC50, A549. Here is the method: as §1
The target in series [8] is T1, KGA (Homo sapiens, UniProt O94925).
T1 sequence (O94925 55-669): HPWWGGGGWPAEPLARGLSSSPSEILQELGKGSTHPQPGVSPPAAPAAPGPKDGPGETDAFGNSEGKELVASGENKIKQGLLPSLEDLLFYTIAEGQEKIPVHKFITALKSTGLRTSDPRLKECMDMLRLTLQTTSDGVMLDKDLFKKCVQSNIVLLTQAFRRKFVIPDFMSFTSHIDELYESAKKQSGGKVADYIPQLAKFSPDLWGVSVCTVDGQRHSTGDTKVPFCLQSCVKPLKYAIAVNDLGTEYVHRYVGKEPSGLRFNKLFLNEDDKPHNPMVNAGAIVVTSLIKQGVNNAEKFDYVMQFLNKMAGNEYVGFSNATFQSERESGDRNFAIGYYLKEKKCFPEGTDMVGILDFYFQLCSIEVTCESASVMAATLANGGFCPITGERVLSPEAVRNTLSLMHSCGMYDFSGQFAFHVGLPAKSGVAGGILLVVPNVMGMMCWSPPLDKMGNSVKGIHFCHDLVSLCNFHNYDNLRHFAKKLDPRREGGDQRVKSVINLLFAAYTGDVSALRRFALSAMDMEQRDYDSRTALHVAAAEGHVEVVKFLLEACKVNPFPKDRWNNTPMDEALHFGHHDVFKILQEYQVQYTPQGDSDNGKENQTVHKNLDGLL
Kind of series: Binding to immobilized KGA by molecular interaction apparatus (ForteBio). The conditions noted are these: KGA immobilized on ForteBio chip. An excerpt: We suspected that ebselen may not inhibit glutaminase. […] Therefore, based on the crystal structure of the allosteric site of glutaminase, we synthesized a series of new symmetric and asymmetric ebselen derivatives with the aim to make an ebselen derived KGA inhibitor. In the derivatives, the benzene ring at the 2-position of the original ebselen molecule was replaced by a straight-chain or branched alkyl substituent containing at least one carbon atom, or a long chain containing thioether, or a smaller cycloalkyl group, and the newly obtained derivatives are effective in binding to the allosteric site of glutaminase. […] Moreover, these inhibitors that bind the allosteric site of glutaminase had good selectivity and higher potency for inhibition of tumor cell growth (<100 nM), and no damage to normal cells (10 μM). These inhibitors also had significant activity in an immunodeficient mouse model with no toxicity. These inhibitors had good inhibitory activity for various types of glutamine-dependent cancer cells (80-90%), especially urinary system tumors. The binding diagram of GAC tetramers and BPTES is shown in FIG. 1, wherein “mark 1” is the active site of substrate binding; and “mark 2” is an allosteric site for BPTES binding.
Our Papers published are Anal. Chem. 2017, 89: 1689, ACS Chemical Biology, 2017, 12:3003
Background: BLI is a label-free optical method that tracks binding on a fibre tip over time.

Series [9] relates to PC3. Kind of series: Inhibition of growth of tumor cells, PC3. In kind it is cell-based. The conditions noted are these: Homo sapiens, PC-3, 72 h, read-out: IC50, PC3. Here is the method: as §1
In series [10] the test system is TrxR. The conditions noted are these: reported; cited from earlier work.
Series [11] has as its system JC82. Put plainly: Inhibition of growth of tumor cells, JC82. The conditions noted are these: 72 h, read-out: IC50, JC82. Type of series: cell-based. Here is the method:
as §1

Series [12] relates to glutamine dependent cancer cell. The conditions noted are these: reported; read-out: Inhibiting glutamine dependent cancer cell growth IC50; cited from earlier work.
The target of series [13] is T2, glutaminase (Homo sapiens, UniProt O94925).
T2 sequence (O94925 55-669): T1 sequence (O94925 55-669)
The following applies: reported; read-out: Glutaminase inhibitor IC50; cited from earlier work.

Series [14] addresses T1, KGA. Kind of series: Inhibition of KGA (glutaminase). Type of series: biochemical.
The subject of series [15] is T24 tumor. Put plainly: Subcutaneous T24 tumor model in nude mice. In kind it is in vivo. The conditions noted are these: immune deficient mice, 1 mg/kg subcutaneously near tumor daily, 7 days, FIG. 6. The protocol:
T24 tumor cells (1,000,000) were inoculated in nude mice, and the tumor size was 10 mm×10 mm in 24th to 27th day. Then compound hexane-(3,3′-dimethyl) thioether selen in PBS solution (200 μl) was injected subcutaneously every day near the tumor with the dosage of 1 mg/kg.

Series [16] concerns A549 tumor. Put plainly: Subcutaneous A549 tumor model in nude mice. In kind it is in vivo. The conditions noted are these: immune deficient mice, 1 mg/kg subcutaneously near tumor daily, 7 days, FIG. 5. The protocol: A549 tumor cells (1,000,000) were inoculated in nude mice, and the tumor size was 10 mm×10 mm in 24th to 27th day. Then compound hexane-(3,3′-dimethyl) thioether selen in PBS solution (200 μl) was injected subcutaneously every day near the tumor with the dosage of 1 mg/kg.

The subject of series [17] is normal cells.
Setting [18] is: bladder cancer cell line table, read-out: L2 (Normal cell) IC50.
Where [19] appears, read: bladder cancer cell line table, read-out: T24 (Bladder cancer) IC50.
[20] abbreviates: 72 h, read-out: IC50, L2 (Normal).
The mark [21] stands for this setting: Homo sapiens, T-24, 72 h, read-out: IC50, T24.

“Also recorded” adds a separate entry of the source. Read-outs that look alike come from different tables or passages of the source.

As for “1,6- tert butyl carbonate hexamethylendiamineselen”, the IC50 (in general, the concentration at which inhibition is half-maximal) in series [1] (setting [18]) was above 10 µM; in series [3] (setting [19]) it was 10 µM. Also, the “Protection of PC12 cells under OGD” value in series [2] is below 100 nM.
As to `O=c1c2ccccc2[se]n1-c1ccccc1` [Ebselen, 2-phenylbenzoisoselenazol-3-one, reference compound], the IC50 in series [1] (72 h, L2 normal cells, 3 days treatment, read-out: IC50, L2 (Normal)) was above 10 µM; in series [1] (setting [18]), above 10 µM; in [4] (Caki cells, 3 days treatment) it was above 10 µM; in series [6] (PC12 cells, 3 days treatment), above 10 µM; in series [7] (72 h, A549 cells, 3 days treatment), above 10 µM; in series [9] (PC3 cells, 3 days treatment), above 10 µM. The IC50 in series [3] (Homo sapiens, T-24, 72 h, T24 cells, 3 days treatment, comparison with parent nucleus, read-out: IC50, T24) is above 10 µM; in [3] (setting [19]) it was above 10 µM; in series [11] (JC82 cells, 3 days treatment), above 10 µM; in series [12], 20 µM; in series [13], 0.009 µM. The “Toxicity to normal cells” value in series [5] is reported as “toxic to the normal cells”. Further, in series [8], the “Binding to KGA / glutaminase” value is given as “not bound to the KGA; also recorded: cannot directly combine toglutaminase”. Besides, in series [2], the “Protection of PC12 cells under OGD” value is listed as 1000 nM. Besides, the “Inhibition of TrxR” value in [10] was “strong inhibitors of TrxR”. In addition, in [14], the “Inhibition of KGA” value is “do not inhibit KGA”.
Turning to `O=c1c2ccccc2[se]n1CCCCCCn1[se]c2c(F)cccc2c1=O` [Hexane - (2'-fluoro) selen, Hexane-(2′-fluoro) selen], the IC50 is above 10 µM in series [1] (read-out: L2 (Normal cell) IC50) and 0.2 µM in series [3] (read-out: T24 (Bladder cancer) IC50). Besides, the “Protection of PC12 cells under OGD” value in [2] is given as below 100 nM.
Regarding `O=c1c2c(F)cccc2[se]n1CCCCCCn1[se]c2cccc(F)c2c1=O` [Hexane-(2,2'-difluoro) selen, Hexane-(2,2′-difluoro) selen], the half-inhibitory concentration (IC50) is above 10 µM in [1] (setting [20]); 1 µM in series [4]; 5 µM in series [6]; 0.5 µM in series [7] (A549, 72 h); 2 µM in series [9]; 0.01 µM in series [3] (setting [21]). Besides, the IC50 in series [11] turned out to be 2 µM.
On to `Cc1cccc2[se]n(CCCCCCn3[se]c4cccc(C)c4c3=O)c(=O)c12` [Hexane-(3,3'-dimethyl) selen, Hexane-(3,3′-dimethyl) selen], for which the 50% inhibitory concentration (IC50) in [1] (setting [20]) is above 10 µM; in series [4], 1 µM; in series [6], 5 µM; in [7] (A549, 72 h) it was 0.5 µM; in [9], 2 µM; in series [3] (setting [21]), 0.2 µM. For the same compound, the IC50 in series [11] turned out to be 5 µM. Besides, the “Binding to KGA / glutaminase” value in series [8] is given as “distinct levels of combination with KGA enzyme”.
For `O=c1c2ccccc2[se]n1CCCSCCCn1[se]c2ccccc2c1=O` [Thioether selen], the IC50 is above 10 µM in [1] (setting [20]); 1 µM in series [4]; 5 µM in [6]; 0.5 µM in series [7] (A549, 72 h); 2 µM in series [9]; 0.5 µM in series [3] (setting [21]). In addition, in series [11], the concentration for half-maximal inhibition (IC50) worked out at 5 µM. Further, the “Protection of PC12 neuronal cells under OGD condition” value in series [2] (words, FIG. 7) is “protection of PC12 neuronal cells”. Besides, the “Inhibition of growth of T24 tumor” value in series [15] is listed as “inhibition of the growth of the T24 tumor cells”. In addition, in [16], the “Inhibition of growth of A549 tumor” value is “inhibition of the growth of the A549 tumor”.
For `O=c1c2ccccc2[se]n1CCn1[se]c2ccccc2c1=O` [ethylselen], in series [10], the “Inhibition of TrxR” value is recorded as “strong inhibitors of TrxR”. Besides, in series [17], the “Toxicity to normal cells” value was “toxic to the normal cells”. In addition, in [14], the “Inhibition of KGA” value is “do not inhibit KGA”.

Source of the values: US10596152B2, “Selenium containing KGA/GDH dual inhibitors and the applications thereof” (HANGZHOU GAMMA BIOTECH CO., LTD., priority 2015, dated 2020).
